Results as given in the NIST ThermoML archive (doi:10.1021/je060271a).
Numbers after ± are expanded uncertainties.

Conditions: Liquid, Vibrating tube method

Which results are given for `CCCC(=O)OCC(COC(=O)CCC)(COC(=O)CCC)COC(=O)CCC` [pentaerythritol tetrabutyrate]?
mass density (343.14 K, 27001 kPa): 1027.8 ± 1.2 kg/m3; mass density (343.14 K, 27378 kPa): 1028.1 ± 1.2 kg/m3; mass density (343.14 K, 27722 kPa): 1028.3 ± 1.2 kg/m3; mass density (343.14 K, 28167 kPa): 1028.7 ± 1.2 kg/m3; mass density (343.14 K, 28200 kPa): 1028.7 ± 1.2 kg/m3; mass density (343.14 K, 28241 kPa): 1028.7 ± 1.2 kg/m3; mass density (343.14 K, 29595 kPa): 1029.4 ± 1.2 kg/m3; mass density (343.14 K, 29634 kPa): 1029.5 ± 1.2 kg/m3; mass density (343.14 K, 29666 kPa): 1029.7 ± 1.2 kg/m3; mass density (343.14 K, 29705 kPa): 1029.5 ± 1.2 kg/m3; mass density (343.14 K, 30226 kPa): 1030 ± 1.2 kg/m3; mass density (343.14 K, 30268 kPa): 1029.9 ± 1.2 kg/m3; mass density (343.14 K, 30303 kPa): 1029.9 ± 1.2 kg/m3; mass density (343.14 K, 30331 kPa): 1030 ± 1.2 kg/m3; mass density (343.14 K, 30366 kPa): 1030.1 ± 1.2 kg/m3; mass density (343.14 K, 30394 kPa): 1030.1 ± 1.2 kg/m3; mass density (343.14 K, 30429 kPa): 1029.9 ± 1.2 kg/m3; mass density (343.14 K, 30464 kPa): 1030.1 ± 1.2 kg/m3; mass density (343.14 K, 30785 kPa): 1030.4 ± 1.2 kg/m3; mass density (343.14 K, 30814 kPa): 1030.4 ± 1.2 kg/m3; mass density (343.14 K, 30849 kPa): 1030.4 ± 1.2 kg/m3; mass density (343.14 K, 30886 kPa): 1030.3 ± 1.2 kg/m3; mass density (343.14 K, 30916 kPa): 1030.4 ± 1.2 kg/m3; mass density (343.14 K, 32186 kPa): 1031.3 ± 1.2 kg/m3; mass density (343.14 K, 32224 kPa): 1031.2 ± 1.2 kg/m3; mass density (343.14 K, 32886 kPa): 1031.6 ± 1.2 kg/m3; mass density (343.14 K, 32998 kPa): 1031.7 ± 1.2 kg/m3; mass density (343.14 K, 33543 kPa): 1032 ± 1.3 kg/m3; mass density (343.14 K, 33577 kPa): 1032.2 ± 1.3 kg/m3; mass density (343.14 K, 33620 kPa): 1032.2 ± 1.3 kg/m3; mass density (343.14 K, 33664 kPa): 1032.2 ± 1.3 kg/m3; mass density (343.14 K, 33699 kPa): 1032.2 ± 1.3 kg/m3; mass density (343.14 K, 33741 kPa): 1032.2 ± 1.3 kg/m3; mass density (343.14 K, 33784 kPa): 1032.2 ± 1.3 kg/m3; mass density (343.14 K, 33820 kPa): 1032.2 ± 1.3 kg/m3; mass density (343.14 K, 33863 kPa): 1032.3 ± 1.3 kg/m3; mass density (343.14 K, 33907 kPa): 1032.4 ± 1.3 kg/m3; mass density (343.15 K, 454.1 kPa): 1008.4 ± 1.2 kg/m3; mass density (343.15 K, 473 kPa): 1008.4 ± 1.2 kg/m3; mass density (343.15 K, 494.2 kPa): 1008.5 ± 1.2 kg/m3; mass density (343.15 K, 517.1 kPa): 1008.3 ± 1.2 kg/m3; mass density (343.15 K, 5946.5 kPa): 1012.7 ± 1.2 kg/m3; mass density (343.15 K, 6013.6 kPa): 1012.8 ± 1.2 kg/m3; mass density (343.15 K, 6051.1 kPa): 1012.8 ± 1.2 kg/m3; mass density (343.15 K, 6081.9 kPa): 1012.8 ± 1.2 kg/m3; mass density (343.15 K, 7040 kPa): 1013.6 ± 1.2 kg/m3; mass density (343.15 K, 7078.5 kPa): 1013.6 ± 1.2 kg/m3; mass density (343.15 K, 7108.1 kPa): 1013.7 ± 1.2 kg/m3; mass density (343.15 K, 7140.9 kPa): 1013.7 ± 1.2 kg/m3; mass density (343.15 K, 8048.2 kPa): 1014.3 ± 1.2 kg/m3; mass density (343.15 K, 8412.3 kPa): 1014.7 ± 1.2 kg/m3; mass density (343.15 K, 8447.3 kPa): 1014.8 ± 1.2 kg/m3; mass density (343.15 K, 8482.2 kPa): 1014.7 ± 1.2 kg/m3; mass density (343.15 K, 8511.5 kPa): 1014.7 ± 1.2 kg/m3; mass density (343.15 K, 8547 kPa): 1014.6 ± 1.2 kg/m3; mass density (343.15 K, 8583.2 kPa): 1014.8 ± 1.2 kg/m3; mass density (343.15 K, 8618.9 kPa): 1014.8 ± 1.2 kg/m3; mass density (343.15 K, 8655.1 kPa): 1014.9 ± 1.2 kg/m3; mass density (343.15 K, 8686 kPa): 1014.8 ± 1.2 kg/m3; mass density (343.15 K, 8982.4 kPa): 1015 ± 1.2 kg/m3; mass density (343.15 K, 9021.7 kPa): 1015.1 ± 1.2 kg/m3; mass density (343.15 K, 9062.3 kPa): 1015.2 ± 1.2 kg/m3; mass density (343.15 K, 9096.7 kPa): 1015.2 ± 1.2 kg/m3; mass density (343.15 K, 9137.8 kPa): 1015.1 ± 1.2 kg/m3; mass density (343.15 K, 9179.2 kPa): 1015.3 ± 1.2 kg/m3; mass density (343.15 K, 9602.2 kPa): 1015.6 ± 1.2 kg/m3; mass density (343.15 K, 9638.9 kPa): 1015.4 ± 1.2 kg/m3; mass density (343.15 K, 9676.1 kPa): 1015.7 ± 1.2 kg/m3; mass density (343.15 K, 9713.7 kPa): 1015.6 ± 1.2 kg/m3; mass density (343.15 K, 9822.7 kPa): 1015.8 ± 1.2 kg/m3; mass density (343.15 K, 9861.5 kPa): 1015.8 ± 1.2 kg/m3; mass density (343.15 K, 9900.4 kPa): 1015.9 ± 1.2 kg/m3; mass density (343.15 K, 9939.7 kPa): 1015.8 ± 1.2 kg/m3; mass density (343.15 K, 9973.1 kPa): 1015.9 ± 1.2 kg/m3; mass density (343.15 K, 10013 kPa): 1016 ± 1.2 kg/m3; mass density (343.15 K, 10053 kPa): 1015.8 ± 1.2 kg/m3; mass density (343.15 K, 10095 kPa): 1015.9 ± 1.2 kg/m3; mass density (343.15 K, 10129 kPa): 1015.9 ± 1.2 kg/m3; mass density (343.15 K, 10171 kPa): 1016 ± 1.2 kg/m3; mass density (343.15 K, 10545 kPa): 1016.2 ± 1.2 kg/m3; mass density (343.15 K, 10590 kPa): 1016.2 ± 1.2 kg/m3; mass density (343.15 K, 10635 kPa): 1016.3 ± 1.2 kg/m3; mass density (343.15 K, 10674 kPa): 1016.5 ± 1.2 kg/m3; mass density (343.15 K, 10720 kPa): 1016.3 ± 1.2 kg/m3; mass density (343.15 K, 10767 kPa): 1016.4 ± 1.2 kg/m3; mass density (343.15 K, 10943 kPa): 1016.5 ± 1.2 kg/m3; mass density (343.15 K, 10980 kPa): 1016.7 ± 1.2 kg/m3; mass density (343.15 K, 11011 kPa): 1016.6 ± 1.2 kg/m3; mass density (343.15 K, 11049 kPa): 1016.6 ± 1.2 kg/m3; mass density (343.15 K, 11087 kPa): 1016.7 ± 1.2 kg/m3; mass density (343.15 K, 11125 kPa): 1016.7 ± 1.2 kg/m3; mass density (343.15 K, 11163 kPa): 1016.7 ± 1.2 kg/m3; mass density (343.15 K, 11196 kPa): 1016.8 ± 1.2 kg/m3; mass density (343.15 K, 11235 kPa): 1016.8 ± 1.2 kg/m3; mass density (343.15 K, 11314 kPa): 1016.8 ± 1.2 kg/m3; mass density (343.15 K, 11354 kPa): 1016.8 ± 1.2 kg/m3; mass density (343.15 K, 11388 kPa): 1017 ± 1.2 kg/m3; mass density (343.15 K, 11428 kPa): 1016.8 ± 1.2 kg/m3; mass density (343.15 K, 11468 kPa): 1017 ± 1.2 kg/m3; mass density (343.15 K, 11510 kPa): 1017 ± 1.2 kg/m3; mass density (343.15 K, 11544 kPa): 1017 ± 1.2 kg/m3; mass density (343.15 K, 11586 kPa): 1017 ± 1.2 kg/m3; mass density (343.15 K, 11628 kPa): 1017.2 ± 1.2 kg/m3; mass density (343.15 K, 11670 kPa): 1017.1 ± 1.2 kg/m3; mass density (343.15 K, 11714 kPa): 1017.1 ± 1.2 kg/m3; mass density (343.15 K, 11749 kPa): 1017.1 ± 1.2 kg/m3; mass density (343.15 K, 11792 kPa): 1017.1 ± 1.2 kg/m3; mass density (343.15 K, 11837 kPa): 1017.3 ± 1.2 kg/m3; mass density (343.15 K, 12365 kPa): 1017.5 ± 1.2 kg/m3; mass density (343.15 K, 12414 kPa): 1017.6 ± 1.2 kg/m3; mass density (343.15 K, 12458 kPa): 1017.7 ± 1.2 kg/m3; mass density (343.15 K, 12498 kPa): 1017.7 ± 1.2 kg/m3; mass density (343.15 K, 12547 kPa): 1017.7 ± 1.2 kg/m3; mass density (343.15 K, 12597 kPa): 1017.8 ± 1.2 kg/m3; mass density (343.15 K, 12647 kPa): 1017.8 ± 1.2 kg/m3; mass density (343.15 K, 12689 kPa): 1017.9 ± 1.2 kg/m3; mass density (343.15 K, 12739 kPa): 1017.8 ± 1.2 kg/m3; mass density (343.15 K, 12791 kPa): 1018 ± 1.2 kg/m3; mass density (343.15 K, 12843 kPa): 1017.9 ± 1.2 kg/m3; mass density (343.15 K, 12895 kPa): 1018 ± 1.2 kg/m3; mass density (343.15 K, 12939 kPa): 1018 ± 1.2 kg/m3; mass density (343.15 K, 12991 kPa): 1018.1 ± 1.2 kg/m3; mass density (343.15 K, 13044 kPa): 1018 ± 1.2 kg/m3; mass density (343.15 K, 13098 kPa): 1018.2 ± 1.2 kg/m3; mass density (343.15 K, 13151 kPa): 1018.2 ± 1.2 kg/m3; mass density (343.15 K, 13198 kPa): 1018.2 ± 1.2 kg/m3; mass density (343.15 K, 13252 kPa): 1018.1 ± 1.2 kg/m3; mass density (343.15 K, 13307 kPa): 1018.2 ± 1.2 kg/m3; mass density (343.15 K, 13364 kPa): 1018.2 ± 1.2 kg/m3; mass density (343.15 K, 13420 kPa): 1018.4 ± 1.2 kg/m3; mass density (343.15 K, 13468 kPa): 1018.5 ± 1.2 kg/m3; mass density (343.15 K, 13526 kPa): 1018.4 ± 1.2 kg/m3; mass density (343.15 K, 13584 kPa): 1018.5 ± 1.2 kg/m3; mass density (343.15 K, 13644 kPa): 1018.5 ± 1.2 kg/m3; mass density (343.15 K, 13698 kPa): 1018.7 ± 1.2 kg/m3; mass density (343.15 K, 13772 kPa): 1018.6 ± 1.2 kg/m3; mass density (343.15 K, 13822 kPa): 1018.7 ± 1.2 kg/m3; mass density (343.15 K, 13864 kPa): 1018.6 ± 1.2 kg/m3; mass density (343.15 K, 13901 kPa): 1018.7 ± 1.2 kg/m3; mass density (343.15 K, 13931 kPa): 1018.8 ± 1.2 kg/m3; mass density (343.15 K, 13968 kPa): 1018.7 ± 1.2 kg/m3; mass density (343.15 K, 14005 kPa): 1018.7 ± 1.2 kg/m3; mass density (343.15 K, 14043 kPa): 1018.9 ± 1.2 kg/m3; mass density (343.15 K, 14079 kPa): 1018.8 ± 1.2 kg/m3; mass density (343.15 K, 14110 kPa): 1018.9 ± 1.2 kg/m3; mass density (343.15 K, 14147 kPa): 1018.9 ± 1.2 kg/m3
